Experimental data from US10710993B2, “Benzofuran pyrazole amine kinase inhibitor” (Hangzhou REX Pharmaceutical Co., LTD., priority 2016, dated 2020).

How the values were obtained:
[1] = system: zebrafish iridophore pigment cells; test: Phenotypic screening of zebrafish: effect on iridophore pigment cells; format: in vivo, Zebrafish (Danio rerio); details: 15 μM
Text: Zebrafish (Danio rerio) is emerging as a predictive vertebrate animal model for in vivo assessment of drug efficacy, toxicity and safety. An important advantage of the zebrafish animal model is that the morphological and molecular basis of tissues and organs is either identical or similar to other vertebrates, including humans. The sequence and presumed function of many genes that are important for vertebrates are conserved in the zebrafish and the homology is as high as 85%. It has been shown that loss-of-function alleles for leukocyte tyrosine kinase (Ltk), the sister kinase to ALK, lack iridophores in zebrafish (Lopes, S. S., Yang, X., et al. (2008). Leukocyte tyrosine kinase functions in pigment cell development. PLoS Genet, 4.). Iridophores are neural crest-derived pigment cells that are clearly visible as shiny silver cells in the developing zebrafish embryo which distribute in the head, eyes, the lateral spine. ALK and LTK are sister kinase.
Therefore, using this principle, we investigated the effect of the compounds on normal zebrafish iridophore pigment cells to explore the compound's anti-ALK activity in vivo.
Method: Fish eggs of 6 hpf (hours post impurity) were randomly divided into groups. Then, subjects with different concentrations were added and the images were collected at 3 dpf (days post impurity). Then, the IOD (integrated option density) values of zebrafish dorsal iridophore pigment cells from the release pore to the caudal position were analyzed using ImageJ software. The Graphpad prism6.0 was used to conduct statistical analysis on Dunnett's t-test, and p<0.05 indicates statistical difference. The calculation formula of iridophore pigment inhibition rate is as follows: Inhibition rate (%)=[1−IOD(Compound)/IOD(vehicle)]×100%

TEL-ALK-C1156Y-BaF3 = molecular target: T1, TEL-ALK-C1156Y-BaF3 (Homo sapiens, UniProt Q9UM73, C1156Y, cells depend on it); test: Cell proliferation experiment (Cell-Titer GLO), TEL-ALK-C1156Y-BaF3; format: cell-based; details: 72 h, read-out: IC50 TEL-ALK C1156Y-BaF3
T1 construct: fused on or other part: TEL (ETV6) N-terminal oligomerising part fused before the ALK intracellular/kinase part; P41212 (Transcription factor ETV6)
T1 sequence (Q9UM73 whole entry C1156Y, the tested form may be a part): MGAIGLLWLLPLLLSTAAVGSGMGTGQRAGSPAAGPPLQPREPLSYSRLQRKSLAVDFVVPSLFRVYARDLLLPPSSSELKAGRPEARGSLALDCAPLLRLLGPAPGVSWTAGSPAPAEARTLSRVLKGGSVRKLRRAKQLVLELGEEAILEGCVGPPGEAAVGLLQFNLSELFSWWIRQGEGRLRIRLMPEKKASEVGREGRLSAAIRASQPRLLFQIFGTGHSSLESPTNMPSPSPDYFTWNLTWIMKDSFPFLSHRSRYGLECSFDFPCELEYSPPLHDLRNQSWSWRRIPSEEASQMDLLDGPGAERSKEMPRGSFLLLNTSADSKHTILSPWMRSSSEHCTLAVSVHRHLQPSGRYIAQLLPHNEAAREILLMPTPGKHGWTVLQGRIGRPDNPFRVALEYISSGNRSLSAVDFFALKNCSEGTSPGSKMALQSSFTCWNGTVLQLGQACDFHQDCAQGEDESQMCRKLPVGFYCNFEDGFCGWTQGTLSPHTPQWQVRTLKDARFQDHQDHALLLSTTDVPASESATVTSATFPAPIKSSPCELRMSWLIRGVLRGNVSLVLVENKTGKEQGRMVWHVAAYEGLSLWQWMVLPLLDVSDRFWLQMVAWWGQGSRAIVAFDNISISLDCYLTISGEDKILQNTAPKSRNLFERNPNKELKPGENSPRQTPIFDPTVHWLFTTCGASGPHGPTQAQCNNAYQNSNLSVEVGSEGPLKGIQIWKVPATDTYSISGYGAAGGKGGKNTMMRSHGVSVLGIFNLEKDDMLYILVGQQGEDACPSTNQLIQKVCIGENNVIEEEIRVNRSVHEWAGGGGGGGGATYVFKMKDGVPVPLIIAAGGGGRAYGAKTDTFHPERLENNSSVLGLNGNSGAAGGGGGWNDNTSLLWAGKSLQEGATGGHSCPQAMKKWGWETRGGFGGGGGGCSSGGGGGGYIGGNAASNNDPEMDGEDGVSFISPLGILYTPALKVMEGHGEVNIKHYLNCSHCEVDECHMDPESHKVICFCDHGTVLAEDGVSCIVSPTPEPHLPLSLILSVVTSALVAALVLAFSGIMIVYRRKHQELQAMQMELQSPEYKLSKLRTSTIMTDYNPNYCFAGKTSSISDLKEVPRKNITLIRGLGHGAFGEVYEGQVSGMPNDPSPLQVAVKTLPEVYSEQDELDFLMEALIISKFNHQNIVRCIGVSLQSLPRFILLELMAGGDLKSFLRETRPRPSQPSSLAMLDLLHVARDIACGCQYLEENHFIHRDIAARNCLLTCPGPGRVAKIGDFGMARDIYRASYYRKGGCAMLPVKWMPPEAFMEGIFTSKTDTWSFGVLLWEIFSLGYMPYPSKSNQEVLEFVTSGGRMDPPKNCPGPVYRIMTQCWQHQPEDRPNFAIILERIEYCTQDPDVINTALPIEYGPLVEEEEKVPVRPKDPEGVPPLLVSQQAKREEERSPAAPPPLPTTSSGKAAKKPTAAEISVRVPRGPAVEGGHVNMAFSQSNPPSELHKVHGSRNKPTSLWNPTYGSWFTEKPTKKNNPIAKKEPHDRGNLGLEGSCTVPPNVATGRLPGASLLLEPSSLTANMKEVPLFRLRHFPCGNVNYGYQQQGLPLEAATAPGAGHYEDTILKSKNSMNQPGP
Protocol: (§1) Compounds to be tested: Positive compound Ceritinib and the compounds obtained by the examples of the present invention.
(§2) Cell lines: Karpas-299 and NCI-H3122 which were purchased from the Nanjing kebai biotechnology Co. LTD; TEL-ALK-F1174L-BaF3, TEL-ALK-G1202R-BaF3, TEL-ALK-C1156Y-BaF3 and TEL-ALK-L1196M-BaF3 which were purchased from Hefei zhongkopruisheng biological medicine technology Co. LTD.
(§3) Method: Cells were seeded in 96-well plates for 24 h in growth media containing 10% fetalbovine serum (FBS) and cultured overnight at 37° C. The following day, serial dilutions of compounds or appropriate control were added to the designated wells, and cells were incubated at 37° C. for 72 h. A Cell Titer Glo assay (Promega) was then performed to determine the relative cell numbers. IC50 values were calculated by concentration-response curve fitting using a four-parameter analytical method with Graphpad 6.0. Drug inhibition rate (%)=100%−[OD(Compound)−OD(blank)]/[OD(vehicle)−OD(blank)]×100% Equation: […]

TEL-ALK-G1202R-BaF3 = molecular target: T2, TEL-ALK-G1202R-BaF3 (Homo sapiens, UniProt Q9UM73, G1202R, cells depend on it); test: Cell proliferation experiment (Cell-Titer GLO), TEL-ALK-G1202R-BaF3; format: cell-based; details: 72 h, read-out: IC50 TEL-ALK G1202R-BaF3
T2 construct: fused on or other part: TEL (ETV6) N-terminal oligomerising part fused before the ALK intracellular/kinase part; P41212 (Transcription factor ETV6)
T2 sequence (Q9UM73 whole entry G1202R, the tested form may be a part): as the sequence (Q9UM73 whole entry C1156Y, the tested form may be a part) above, with Y1156C, G1202R counted along it
Protocol: as §1, §2, §3

TEL-ALK-F1174L-BaF3 = molecular target: T3, TEL-ALK-F1174L-BaF3 (Homo sapiens, UniProt Q9UM73, F1174L, cells depend on it); test: Cell proliferation experiment (Cell-Titer GLO), TEL-ALK-F1174L-BaF3; format: cell-based; details: 72 h, read-out: IC50 TEL-ALK F1174L-BaF3
T3 construct: fused on or other part: TEL (ETV6) N-terminal oligomerising part fused before the ALK intracellular/kinase part; P41212 (Transcription factor ETV6)
T3 sequence (Q9UM73 whole entry F1174L, the tested form may be a part): as the sequence (Q9UM73 whole entry C1156Y, the tested form may be a part) above, with Y1156C, F1174L counted along it
Protocol: as §1, §2, §3

Karpas-299 = test: Cell proliferation experiment (Cell-Titer GLO), Karpas-299; format: cell-based; details: Homo sapiens, 72 h
Protocol: as §1, §2, §3

NCI-H3122 = test: Cell proliferation experiment (Cell-Titer GLO), NCI-H3122; format: cell-based; details: Homo sapiens, 72 h
Protocol: as §1, §2, §3

NCI-H2228 tumor cells = test: Subcutaneous NCI-H2228 lung cancer xenograft model; format: in vivo, BALB/C nude mice
Protocol: BALB/C nude mice were inoculated at the right flank with NCI-H2228 tumor cells to establish the human Lung cancer xenograft model. […] The drug was administered for 14 days and then discontinued for two weeks. The therapeutic effect was evaluated by calculating the relative tumor proliferation rate T/C (%), and the tolerability of treatment was evaluated by the body weight changes and death.
Tumor volume (TV) were measured twice per week in two dimensions using a caliper, and the volume were expressed in mm^3 using the formula: V=0.5 a×b^2 where a and b are the long and short diameters of the tumor, respectively.
Relative tumor volume RTV=Vt/V0, Vt=tumor volume of the drug-treated group on a given day of the study, V0=tumor volume of the drug-treated group on the initial day of dosing.
The T/C value (%) is an indicator of tumor response to treatment, and one of commonly used anti-tumor activity endpoint; T/C %=TRTV/CRTV×100% Relative Tumor Growth Inhibition; % TGI=(1−T/C)×100%;

ALK L1196M = molecular target: T4, ALK L1196M (Homo sapiens, UniProt Q9UM73, L1196M); test: LanthaScreen Eu Kinase Binding Assay (TR-FRET) on ALK mutant
T4 construct: purchased Life Technology
T4 sequence (Q9UM73 19-1620 L1196M): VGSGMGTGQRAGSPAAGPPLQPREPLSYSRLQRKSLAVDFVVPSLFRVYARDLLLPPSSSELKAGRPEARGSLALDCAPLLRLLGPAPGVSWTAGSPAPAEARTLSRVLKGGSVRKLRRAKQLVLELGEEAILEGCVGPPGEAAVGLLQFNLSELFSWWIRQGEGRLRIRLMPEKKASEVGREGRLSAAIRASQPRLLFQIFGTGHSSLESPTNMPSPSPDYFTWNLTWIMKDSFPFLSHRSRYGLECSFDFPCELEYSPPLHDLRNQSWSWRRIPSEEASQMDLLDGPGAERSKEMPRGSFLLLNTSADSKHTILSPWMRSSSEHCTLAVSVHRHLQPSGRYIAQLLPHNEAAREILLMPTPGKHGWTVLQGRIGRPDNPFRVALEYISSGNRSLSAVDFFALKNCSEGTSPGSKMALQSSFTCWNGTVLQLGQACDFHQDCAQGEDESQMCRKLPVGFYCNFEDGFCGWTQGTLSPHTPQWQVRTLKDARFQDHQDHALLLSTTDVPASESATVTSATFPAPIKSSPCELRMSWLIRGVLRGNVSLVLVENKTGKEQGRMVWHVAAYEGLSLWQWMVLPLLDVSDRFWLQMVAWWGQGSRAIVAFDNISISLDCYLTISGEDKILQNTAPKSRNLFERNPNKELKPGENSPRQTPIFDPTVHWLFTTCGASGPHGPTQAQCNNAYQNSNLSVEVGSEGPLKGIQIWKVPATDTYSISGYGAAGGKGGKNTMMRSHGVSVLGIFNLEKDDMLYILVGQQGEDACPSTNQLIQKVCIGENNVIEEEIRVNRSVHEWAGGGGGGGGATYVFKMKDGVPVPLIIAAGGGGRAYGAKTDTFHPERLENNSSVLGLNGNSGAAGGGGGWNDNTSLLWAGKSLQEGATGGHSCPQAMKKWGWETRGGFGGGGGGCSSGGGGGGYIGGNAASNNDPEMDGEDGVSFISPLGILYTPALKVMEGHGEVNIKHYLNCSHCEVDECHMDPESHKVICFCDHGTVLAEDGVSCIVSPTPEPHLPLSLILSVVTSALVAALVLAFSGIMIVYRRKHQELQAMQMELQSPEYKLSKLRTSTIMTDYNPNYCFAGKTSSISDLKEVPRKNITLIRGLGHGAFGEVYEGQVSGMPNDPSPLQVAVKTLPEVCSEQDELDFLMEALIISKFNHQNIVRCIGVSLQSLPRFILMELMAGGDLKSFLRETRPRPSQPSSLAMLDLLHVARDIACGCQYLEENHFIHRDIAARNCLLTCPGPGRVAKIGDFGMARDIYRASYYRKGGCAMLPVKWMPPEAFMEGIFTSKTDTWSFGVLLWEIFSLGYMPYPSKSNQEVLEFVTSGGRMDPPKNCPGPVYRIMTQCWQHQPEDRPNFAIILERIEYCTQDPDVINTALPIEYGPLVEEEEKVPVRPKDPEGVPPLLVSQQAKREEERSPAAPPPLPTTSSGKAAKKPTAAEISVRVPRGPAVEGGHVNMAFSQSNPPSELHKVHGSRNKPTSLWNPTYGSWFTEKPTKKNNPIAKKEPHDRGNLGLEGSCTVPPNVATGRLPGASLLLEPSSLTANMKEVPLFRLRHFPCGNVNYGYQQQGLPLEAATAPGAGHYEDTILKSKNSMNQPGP
Text: Meanwhile, The LanthaScreen® Eu Kinase Binging Assay (TR-FRET) method was used for determining ALK Mutants (such as ALK L1196M) inhibitory activity IC50. LanthaScreen Eu kinase binding experiment detected Alexa Fluor conjugate or kinase “tracer” binding by adding Eu labeled antibodies or anti-label antibodies. The combination of tracer and antibody with kinase leads to a high level of FRET, whereas the use of kinase inhibitors in place of tracer may cause FRET loss.
(§4) The kinase activity assay was determined by using kinase assay panel (Life Technology) and the result was in table 1.

Wild-Type ALK = molecular target: T5, Wild-Type ALK (Homo sapiens, UniProt Q9UM73); test: Z'-LYTE (FRET) ALK kinase inhibitory activity; format: biochemical
T5 construct: purchased Life Technology
T5 sequence (Q9UM73 19-1620): as the sequence (Q9UM73 19-1620 L1196M) above, with M1178L counted along it
Protocol: as §4

TEL-ALK-L1196M-BaF3 = molecular target: T6, TEL-ALK-L1196M-BaF3 (Homo sapiens, UniProt Q9UM73, L1196M, cells depend on it); test: Cell proliferation experiment (Cell-Titer GLO), TEL-ALK-L1196M-BaF3; format: cell-based; details: 72 h, read-out: IC50 TEL-ALK L1196M-BaF3
T6 construct: fused on or other part: TEL (ETV6) N-terminal oligomerising part fused before the ALK intracellular/kinase part; P41212 (Transcription factor ETV6)
T6 sequence (Q9UM73 whole entry L1196M, the tested form may be a part): as the sequence (Q9UM73 whole entry C1156Y, the tested form may be a part) above, with Y1156C, L1196M counted along it
Protocol: as §2
Method: Cells were seeded in 96-well plates for 24 h in growth media containing 10% fetalbovine serum (FBS) and cultured overnight at 37° C. The following day, serial dilutions of compounds or appropriate control were added to the designated wells, and cells were incubated at 37° C. for 72 h. A Cell Titer Glo assay (Promega) was then performed to determine the relative cell numbers. IC50 values were calculated by concentration-response curve fitting using a four-parameter analytical method with Graphpad 6.0.

SMILES	GI50 (TEL-ALK-C1156Y-BaF3)	GI50 (TEL-ALK-G1202R-BaF3)	GI50 (TEL-ALK-F1174L-BaF3)	IC50 (Karpas-299)	IC50 (NCI-H3122)	IC50 (ALK L1196M)	IC50 (Wild-Type ALK)	GI50 (TEL-ALK-L1196M-BaF3)	IOD ([1]; added at 6 hpf, images at 3 dpf)	inhibition at 15 µM ([1]; Danio rerio, iridophore pigment, 3 dpf, read-out: Inhibition rate %)	TGI (NCI-H2228 tumor cells; 30 mg/kg PO QD 14 days, at 14 days after administration)	tumor volume (NCI-H2228 tumor cells; 30 mg/kg PO QD 14 days, at 14 days after administration (first day after administration end))	TGI (NCI-H2228 tumor cells; 30 mg/kg PO QD 14 days, end of the experiment (15 days after the administration))	anti-tumor effect (NCI-H2228 tumor cells; 30 mg/kg, once a day, continuously for 14 days)
Cc1cc(Nc2ncc(Cl)c(Nc3ccccc3S(=O)(=O)C(C)C)n2)c(OC(C)C)cc1C1CCNCC1 [Ceritinib, reference compound]	36.5 nM	> 180 nM	36.1 nM	40 to 85 nM	40.7 nM				35.5 ± 7.0	95%	94.7%	17 mm^3	95.3%	significant anti-tumor effect
Cc1cc(Nc2ncc(Cl)c(Nc3cn(C)nc3S(=O)(=O)C(C)C)n2)c2c(c1C1CCNCC1)C[C@@H](C)O2 [REX-D1, (R)-5-chloro-N^2-(2,5-dimethyl-4-(piperidin-4-yl)-2,3-dihydrobenzofuran-7-yl)-N^4-(3-(isopropylsulfonyl)-1-methyl-1H-pyrazol-4-yl)pyrimidine-2,4-diamine]	10.5 nM	> 180 nM	< 10 nM	< 20 nM	10.6 nM	1.34 nM	6.82 nM	10.5 nM						
CC(=O)N1CCC(c2c(C)cc(Nc3ncc(Cl)c(Nc4cn(C)nc4S(=O)(=O)C(C)C)n3)c3c2C[C@@H](C)O3)CC1 [REX-D12, (R)-1-(4-(7-((5-chloro-4-((3-(isopropylsulfonyl)-1-methyl-1H-pyrazol-4-yl)amino)pyrimidin-2-yl)amino)-2,5-dimethyl-2,3-dihydrobenzofuran-4-yl)piperidin-1-yl)ethanone]		> 180 nM	11.6 nM		10.7 nM	1.07 nM	9.21 nM							
Cc1cc(Nc2ncc(Cl)c(Nc3cn(C)nc3S(=O)(=O)C(C)C)n2)c2c(c1C1CCN(C(C)C)CC1)C[C@@H](C)O2 [REX-D14, (R)-5-chloro-N^2-(4-(1-isopropylpiperidin-4-yl)-2,5-dimethyl-2,3-dihydrobenzofuran-7-yl)-N^4-(3-(isopropylsulfonyl)-1-methyl-1H-pyrazol-4-yl)pyrimidine-2,4-diamine]		> 180 nM	11.2 nM		10.7 nM	1.1 nM	15.7 nM							
Cc1cc(Nc2ncc(Cl)c(Nc3cn(C(C)C)nc3S(=O)(=O)C(C)C)n2)c2c(c1C1CCNCC1)C[C@@H](C)O2 [REX-D32, (R)-5-chloro-N^2-(2,5-dimethyl-4-(piperidin-4-yl)-2,3-dihydrobenzofuran-7-yl)-N^4-(1-isopropyl-3-(isopropylsulfonyl)-1H-pyrazol-4-yl)pyrimidine-2,4-diamine]		> 180 nM	< 200 nM		57.2 nM	3.86 nM	19.3 nM							
CCn1cc(Nc2nc(Nc3cc(C)c(C4CCNCC4)c4c3O[C@H](C)C4)ncc2Cl)c(S(=O)(=O)C(C)C)n1 [REX-D33, (R)-5-chloro-N^2-(2,5-dimethyl-4-(piperidin-4-yl)-2,3-dihydrobenzofuran-7-yl)-N^4-(1-ethyl-3-(isopropylsulfonyl)-1H-pyrazol-4-yl)pyrimidine-2,4-diamine]		> 180 nM	33.4 nM		11.7 nM	2 nM	15.5 nM							

The next lines start with results.

GI50 (TEL-ALK-C1156Y-BaF3)	GI50 (TEL-ALK-G1202R-BaF3)	GI50 (TEL-ALK-F1174L-BaF3)	IC50 (Karpas-299)	IC50 (NCI-H3122)	IC50 (ALK L1196M)	IC50 (Wild-Type ALK)	GI50 (TEL-ALK-L1196M-BaF3)	SMILES	IOD ([1]; added at 6 hpf, images at 3 dpf)	inhibition at 15 µM ([1]; Danio rerio, iridophore pigment, 3 dpf, read-out: Inhibition rate %)	TGI (NCI-H2228 tumor cells; 30 mg/kg PO QD 14 days, at 14 days after administration)	tumor volume (NCI-H2228 tumor cells; 30 mg/kg PO QD 14 days, at 14 days after administration (first day after administration end))	TGI (NCI-H2228 tumor cells; 30 mg/kg PO QD 14 days, end of the experiment (15 days after the administration))	anti-tumor effect (NCI-H2228 tumor cells; 30 mg/kg, once a day, continuously for 14 days)
	> 180 nM	94.3 nM		33.7 nM	1.02 nM	18.8 nM		Cc1cc(Nc2ncc(Cl)c(Nc3cn(C)nc3S(=O)(=O)C(C)C)n2)c2c(c1C1CCN(C3CCNCC3)CC1)C[C@@H](C)O2 [REX-D13, (R)—N^2-(4-([1,4′-bipiperidin]-4-yl)-2,5-dimethyl-2,3-dihydrobenzofuran-7-yl)-5-chloro-N^4-(3-(isopropylsulfonyl)-1-methyl-1H-pyrazol-4-yl)pyrimidine-2,4-diamine]						
	> 180 nM	138 nM		40.4 nM	1.92 nM	15.1 nM		Cc1cc(Nc2ncc(Cl)c(Nc3cn(C4CC4)nc3S(=O)(=O)C(C)C)n2)c2c(c1C1CCNCC1)C[C@@H](C)O2 [REX-D31, (R)-5-chloro-N^4-(1-cyclopropyl-3-(isopropylsulfonyl)-1H-pyrazol-4-yl)-N^2-(2,5-dimethyl-4-(piperidin-4-yl)-2,3-dihydrobenzofuran-7-yl)pyrimidine-2,4-diamine]						
	> 180 nM	26.1 nM		13.9 nM	1.12 nM	9.4 nM		Cc1cc(Nc2ncc(Cl)c(Nc3cn(C4CC4)nc3S(=O)(=O)C(C)C)n2)c2c(c1C1CCN(C)CC1)C[C@@H](C)O2 [REX-D34, (R)-5-chloro-N^4-(1-cyclopropyl-3-(isopropylsulfonyl)-1H-pyrazol-4-yl)-N^2-(2,5-dimethyl-4-(1-methylpiperidin-4-yl)-2,3-dihydrobenzofuran-7-yl)pyrimidine-2,4-diamine]						
	> 180 nM	80.4 nM		40.3 nM	1.99 nM	13.9 nM		Cc1cc(Nc2ncc(Cl)c(Nc3cn(C(C)C)nc3S(=O)(=O)C(C)C)n2)c2c(c1C1CCN(C)CC1)C[C@@H](C)O2 [REX-D35, (R)-5-chloro-N^2-(2,5-dimethyl-4-(1-methylpiperidin-4-yl)-2,3-dihydrobenzofuran-7-yl)-N^4-(1-isopropyl-3-(isopropylsulfonyl)-1H-pyrazol-4-yl)pyrimidine-2,4-diamine]						
	> 180 nM	22.4 nM		11.4 nM	0.55 nM	9.28 nM		CCn1cc(Nc2nc(Nc3cc(C)c(C4CCN(C)CC4)c4c3O[C@H](C)C4)ncc2Cl)c(S(=O)(=O)C(C)C)n1 [REX-D36, (R)-5-chloro-N^2-(2,5-dimethyl-4-(1-methylpiperidin-4-yl)-2,3-dihydrobenzofuran-7-yl)-N^4-(1-ethyl-3-(isopropylsulfonyl)-1H-pyrazol-4-yl)pyrimidine-2,4-diamine]						
